These results are taken from patent US8465947B2, “Lantibiotic biosynthetic gene clusters from A. garbadinensis and A. liguriae” (Novacta Biosystems Limited, priority 2006, dated 2013).

In this test the test system is C. difficile. Nature of the test: MIC against C. difficile, NCCLS agar dilution method for anaerobic bacteria. It is filed as cell-based, Clostridium difficile. The conditions noted are these: calcium 50 μg/ml. On the procedure: Minimum inhibitory concentrations (MICs) for C. difficile were determined and antimicrobial agent stock solutions were prepared and stored according to the NCCLS reference agar dilution method for anaerobic bacteria (M11-A5, 2001). Two-fold serial antibiotic dilutions were prepared in Wilkens-Chalgren agar (WCA). Test organisms were selected from 48 hour growth on Braziers (C.C.E.Y.) agar, subcultured in Schaedler broth to a density equivalent to a McFarland 0.5 standard (1×10^8 CFU/ml), with a final inoculum onto WCA plates of approximately 10^5 CFU/spot. Bacteroides fragilis ATCC 25285 was included as a reference control strain and Metronidazole was used as a reference antibiotic for quality control. All manipulations were performed in duplicate in ambient atmosphere in pre-reduced media with only brief exposure to oxygen. Plates were incubated anaerobically for 48 hours at 37° C. with the MIC defined as the concentration of drug where a marked reduction occurred in the appearance of growth on the test plate compared to growth on the anaerobic control plate.
Culture media were supplemented with calcium ions (as calcium chloride) at 50 μg/ml except where higher concentrations are indicated.
A general note: Agar dilution tests growth on a series of plates holding different concentrations.

Each structure is given as a SMILES string. ≈ marks a conversion by molar mass, not a printed value.

Take `CC[C@H](C)[C@@H]1NC(=O)[C@@H]2NC(=O)[C@H](CC(C)C)NC(=O)[C@H](NC(=O)[C@@H]3CSC[C@@H](NC(=O)[C@@H](N)Cc4c[nH]c5ccccc45)C(=O)N[C@@H](CO)C(=O)NCC(=O)N[C@@H](Cc4c[nH]c5ccccc45)C(=O)N[C@@H](C(C)C)C(=O)N3)[C@H](C)SC[C@H](NC(=O)[C@H](CCC(=O)O)NC1=O)C(=O)NCC(=O)N[C@H]1C(=O)N[C@@H](CC(C)C)C(=O)N[C@@H](C(C)C)C(=O)N[C@@H](CS[C@H]2C)C(=O)N[C@@H](C)C(=O)N[C@H](C(=O)O)CS[C@H]1C` [Compound IX, L-Tryp(0)deoxyactagardine B]: the “MIC C. difficile 19126” value turned out to be 2 µg/mL (≈ 0.971 µM) and the “MIC C. difficile 37779” value amounted to 1 µg/mL (≈ 0.485 µM).

For `CC[C@H](C)[C@@H]1NC(=O)[C@@H]2NC(=O)[C@H](CC(C)C)NC(=O)[C@H](NC(=O)[C@@H]3CSC[C@@H](NC(=O)[C@@H](N)C(C)C)C(=O)N[C@@H](CO)C(=O)NCC(=O)N[C@@H](Cc4c[nH]c5ccccc45)C(=O)N[C@@H](C(C)C)C(=O)N3)[C@H](C)SC[C@H](NC(=O)[C@H](CCC(=O)O)NC1=O)C(=O)NCC(=O)N[C@H]1C(=O)N[C@@H](CC(C)C)C(=O)N[C@@H](C(C)C)C(=O)N[C@@H](CS[C@H]2C)C(=O)N[C@@H](C)C(=O)N[C@H](C(=O)O)CS[C@H]1C` [Compound VI, L-Val(0)deoxyactagardine B], the “MIC C. difficile 19126” value is 8 µg/mL (≈ 4.05 µM) and the “MIC C. difficile 37779” value came out at 8 µg/mL (≈ 4.05 µM).
